Experimental data published in ChEMBL document CHEMBL5131512, “Novel niclosamide-derived adjuvants elevating the efficacy of polymyxin B against MDR Pseudomonas aeruginosa DK2” (Eur J Med Chem, 2022).
≈ marks a conversion by molar mass, not a printed value. Calls of active or inactive are those of the source. No cut-off for these calls is given here. Bridge positions count the residues as written; N and C are the ends. Square brackets hold non-standard residues; d marks the D form. Peptide text beside a SMILES is read from it. * marks the point of attachment. X1 = CC[C@H](C)CCCCC(=O)*; Dab = NCC[C@H](N)C(=O)O

Tests used:
[1] = tested on: Pseudomonas aeruginosa; test: Antimicrobial activity against clinical isolate CF333-2007 Pseudomonas aeruginosa DK2 measured after 18 hrs in presence of polymyxin B by microbroth dilution assay; type: functional
[2] = tested on: Pseudomonas aeruginosa; test: Antimicrobial activity against clinical isolate CF333-2007 Pseudomonas aeruginosa DK2 assessed as polymyxin B MIC measured after 18 hrs by microbroth dilution assay; type: functional
[3] = tested on: Pseudomonas aeruginosa; test: Synergistic antibacterial activity against clinical isolate CF333-2007 Pseudomonas aeruginosa DK2 assessed as fractional inhibitory concentration index incubated for 18 hrs in presence of Polymyxin B; type: functional
[4] = tested on: Pseudomonas aeruginosa; test: Antimicrobial activity against clinical isolate CF333-2007 Pseudomonas aeruginosa DK2 measured after 18 hrs by microbroth dilution assay; type: functional
[5] = tested on: Pseudomonas aeruginosa; test: Antibacterial activity against Pseudomonas aeruginosa PAO1 assessed as reduction in bacterial growth at 2 ug/ml measured after 24 hrs in presence of polymyxin B by time kill assay; type: functional; details: dose 2 µg/ml
[6] = tested on: Klebsiella pneumoniae; test: Synergistic antibacterial activity against Klebsiella pneumoniae 674 assessed as polymyxin MIC at 8 ug/ml; type: functional; details: dose 8 µg/ml
[7] = tested on: Escherichia coli; test: Synergistic antibacterial activity against Escherichia coli 15017 assessed as polymyxin MIC at 8 ug/ml; type: functional; details: dose 8 µg/ml
[8] = tested on: Pseudomonas aeruginosa; test: Synergistic antibacterial activity against Pseudomonas aeruginosa PAO1 infected in Caenorhabditis elegans N2 worms assessed as worms survival at 4 to 8 ug/ml in presence of polymyxin B; type: functional; details: dose 4-8 µg/ml; at 4 to 8 µg/mL
[9] = Acute toxicity in ICR mouse assessed as mortality at 50 mg/kg, ip administered as single dose; type: organism-based; details: in vivo
[10] = Acute toxicity in ICR mouse assessed as effect on lungs at 50 mg/kg, ip administered as single dose measured after 7 days; type: organism-based, Lung; details: in vivo, 168 h, time 7 day
[11] = Acute toxicity in ICR mouse assessed as effect on kidney at 50 mg/kg, ip administered as single dose measured after 7 days; type: organism-based; details: in vivo, 168 h, time 7 day
[12] = Acute toxicity in ICR mouse assessed as effect on liver at 50 mg/kg, ip administered as single dose measured after 7 days; type: organism-based; details: in vivo, 168 h, time 7 day
[13] = Acute toxicity in ICR mouse assessed as effect on heart at 50 mg/kg, ip administered as single dose measured after 7 days; type: organism-based; details: in vivo, 168 h, time 7 day
[14] = Acute toxicity in ICR mouse assessed as effect on spleen at 50 mg/kg, ip administered as single dose measured after 7 days; type: organism-based; details: in vivo, 168 h, time 7 day
[15] = tested on: Pseudomonas aeruginosa; test: Inhibition of PA3552-lux expression in Pseudomonas aeruginosa DK2 at 1 ug/ml measured after 5 to 8 hrs by microplate reader assay; type: functional; details: dose 1.0 µg/ml, time 5-8 hrs
[16] = tested on: Pseudomonas aeruginosa; test: Antibacterial activity against Pseudomonas aeruginosa DK2 assessed as reduction in bacterial growth at 4 ug/ml measured after 24 hrs in presence […] of polymyxin B by time kill assay; type: functional; details: dose 4 µg/ml
[17] = tested on: Pseudomonas aeruginosa; test: Suppression of polymyxin drug resistance development against pseudomonas aeruginosa DK2 at 4 ug/ml in presence of polymyxin B after repeated passaging for 14 days; type: functional; details: dose 4 µg/ml; time 14 day
[18] = tested on: Klebsiella pneumoniae; test: Synergistic antibacterial activity against Klebsiella pneumoniae 674 assessed as fold decrease in polymyxin MIC at 8 ug/ml; type: functional; details: dose 8 µg/ml
[19] = tested on: Acinetobacter baumannii; test: Synergistic antibacterial activity against Acinetobacter baumannii 186 assessed as fold decrease in polymyxin MIC at 8 ug/ml; type: functional; details: dose 8 µg/ml
[20] = tested on: Escherichia coli; test: Synergistic antibacterial activity against Escherichia coli 15017 assessed as fold decrease in polymyxin MIC at 8 ug/ml; type: functional; details: dose 8 µg/ml
[21] = tested on: Pseudomonas aeruginosa; test: Antibacterial activity against Pseudomonas aeruginosa PAO1 infected in Caenorhabditis elegans N2 worms assessed as colonization of bacteria on intestinal tract at 8 ug/ml in presence of polymyxin B; type: functional, organism-based; details: dose 8.0 µg/ml
[22] = Acute toxicity in ICR mouse assessed as mortality at 50 mg/kg, ip administered as single dose measured after 2 hrs; type: organism-based; details: in vivo, read-out: Activity
[23] = Acute toxicity in ICR mouse assessed as effect on body weight at 50 mg/kg, ip administered as single dose measured daily for 7 days; type: organism-based; details: in vivo, 168 h, time 7 day
[24] = tested on: Pseudomonas aeruginosa; test: Synergistic inhibition of PA3552-lux expression in Pseudomonas aeruginosa DK2 at 1 ug/ml measured after 5 to 8 hrs in presence of polymyxin B by microplate reader assay; type: functional, organism-based; details: dose 1.0 µg/ml, time 5-8 hrs
[25] = tested on: Pseudomonas aeruginosa; test: Antibacterial activity against Pseudomonas aeruginosa DK2 assessed as reduction in bacterial growth at 0.5 ug/ml measured after 24 hrs by time kill assay; type: functional; details: dose 0.5 µg/ml
[26] = tested on: Pseudomonas aeruginosa; test: Drug resistance against pseudomonas aeruginosa DK2 assessed as increase in MIC measured after repeated passaging for 14 days; type: functional; details: DK2, 336 h, time 14 day
[27] = tested on: Pseudomonas aeruginosa; test: Drug resistance against pseudomonas aeruginosa DK2 assessed as fold increase in MIC measured after repeated passaging for 14 days; type: functional; details: time 14 day
[28] = tested on: Pseudomonas aeruginosa; test: Antibacterial activity against Pseudomonas aeruginosa PAO1 infected in Caenorhabditis elegans N2 worms at 16 ug/ml; type: functional, organism-based; details: dose 16.0 µg/ml

Row | Structure (SMILES) | MIC [1] | MIC [2] | MIC [4] | fractional inhibitory concentration index (FICI) [3] | other results
1 | O=C(Nc1ccc([N+](=O)[O-])cc1Cl)c1cc(F)c(F)cc1O | 8 µg/mL | 1 µg/mL | > 1020 µg/mL | 0.012 | –
2 | Nc1ccc(NC(=O)c2cc(Cl)ccc2O)c(Cl)c1 | 16 µg/mL | 8 µg/mL | > 1020 µg/mL | 0.047 | –
3 | O=C(Nc1cc(Cl)ccc1O)c1ccc([N+](=O)[O-])cc1Cl | 16 µg/mL | 4 µg/mL | > 1020 µg/mL | 0.031 | –
4 | O=C(O)c1ccc(NC(=O)c2cc(Cl)ccc2O)c(Cl)c1 | > 32 µg/mL | > 32 µg/mL | > 1020 µg/mL | – | –
5 | O=C(Nc1ccc([N+](=O)[O-])cc1Cl)c1cccc(Br)c1O | 16 µg/mL | 1 µg/mL | – | 0.254 | –
6 | O=C(Nc1ccc([N+](=O)[O-])cc1Cl)c1ccc(O)cc1O | > 32 µg/mL | > 32 µg/mL | > 1020 µg/mL | – | –
7 | O=C(Nc1ccc([N+](=O)[O-])cc1Cl)c1cc(F)ccc1O | 4 µg/mL | 1 µg/mL | > 1020 µg/mL | 0.008 | Activity [5]: >5 log10CFU/ml; MIC [6]: 1 µg/mL; MIC [7]: 0.25 µg/mL; Survival [8]: 7.31%; Activity [9]: Non-Toxic; Activity [10]: Non-Toxic; Activity [11]: Non-Toxic; Activity [12]: Non-Toxic; Activity [13]: Non-Toxic; Activity [14]: Non-Toxic; inhibition [15]: Active; Activity [16]: 2.88 log10CFU/ml; Activity [17]: 100%; fold change (FC) [18]: 256; fold change (FC) [19]: 16; fold change (FC) [20]: 16; Activity [21]: Active; mortality at 2 h [22]: 80%; Activity [23]: Non-Toxic; inhibition [24]: Active
8 | COc1ccc(O)c(C(=O)Nc2ccc([N+](=O)[O-])cc2Cl)c1 | 8 µg/mL | 4 µg/mL | > 1020 µg/mL | 0.023 | –
9 | O=C(Nc1ccc([N+](=O)[O-])cc1Cl)c1cc(C(F)(F)F)ccc1O | 16 µg/mL | 2 µg/mL | > 1020 µg/mL | 0.023 | –
10 | O=C(Nc1ccc(N2CCOCC2=O)cc1)c1cc(F)ccc1O | – | – | > 1020 µg/mL | – | –
11 | CC[C@H](C)CCCCC(=O)N[C@@H](CCN)C(=O)N[C@H](C(=O)N[C@@H](CCN)C(=O)N[C@H]1CCNC(=O)[C@H]([C@@H](C)O)NC(=O)[C@H](CCN)NC(=O)[C@H](CCN)NC(=O)[C@H](CC(C)C)NC(=O)[C@@H](Cc2ccccc2)NC(=O)[C@H](CCN)NC1=O)[C@@H](C)O (X1-[Dab]T[Dab][Dab][Dab][dF]L[Dab][Dab]T; lactam 4-C) | – | – | 256 µg/mL (≈ 0.213 mM) | – | Activity [25]: 6.38 log10CFU/ml; MIC [26]: 8190 µg/mL; fold change (FC) [27]: 32; Activity [28]: Active
12 | O=C(Nc1ccc(S(=O)(=O)N2CCOCC2)cc1)c1cc(F)ccc1O | – | – | > 1020 µg/mL | – | –
13 | O=C(Nc1ccc2[nH]c(=O)sc2c1)c1cc(F)ccc1O | – | – | > 1020 µg/mL | – | –
14 | O=C(Nc1ccccc1)c1cc(Cl)ccc1O | 4 µg/mL | 2 µg/mL | > 1020 µg/mL | 0.012 | –
15 | O=C(Nc1ccc([N+](=O)[O-])cc1O)c1cc(Cl)ccc1O | 4 µg/mL | 4 µg/mL | – | 0.078 | –
16 | O=C(Oc1ccc([N+](=O)[O-])cc1Cl)c1cc(Cl)ccc1O | 16 µg/mL | 8 µg/mL | – | 0.141 | –
17 | O=C(Nc1ccc(O)cc1Cl)c1ccc(Br)cc1O | – | – | > 1020 µg/mL | – | –
18 | O=C(Nc1ccc([N+](=O)[O-])cc1Cl)c1ccc(F)cc1O | 16 µg/mL | 1 µg/mL | – | 0.066 | –
19 | O=C(Nc1ccc([N+](=O)[O-])cc1Cl)c1cccc(Cl)c1 | > 32 µg/mL | > 32 µg/mL | > 1020 µg/mL | – | –
20 | O=C(Nc1ccc([N+](=O)[O-])cc1Cl)c1cc(Br)ccc1O | 32 µg/mL | 1 µg/mL | > 1020 µg/mL | 0.066 | –
21 | O=C(Nc1ccc(O[C@H]2O[C@H](CO)[C@H](O)[C@H](O)[C@H]2O)cc1Cl)c1cc(Cl)ccc1O | > 32 µg/mL | > 32 µg/mL | > 1020 µg/mL | – | –
22 | O=C(Nc1ccc([N+](=O)[O-])cc1Cl)c1ccncc1 | > 32 µg/mL | > 32 µg/mL | > 1020 µg/mL | – | –
23 | Cc1ccc(O)c(C(=O)Nc2ccc([N+](=O)[O-])cc2Cl)c1 | 1 µg/mL | 4 µg/mL | > 1020 µg/mL | 0.017 | –
24 | O=C(Nc1ccc([N+](=O)[O-])cc1Cl)c1cc(Cl)ccc1OC(=O)[C@@H]1CCCN1 | 16 µg/mL | 16 µg/mL | > 1020 µg/mL | 0.078 | –
25 | O=C(Nc1ccc([N+](=O)[O-])cc1Cl)c1ccccc1O | 2 µg/mL | 2 µg/mL | > 1020 µg/mL | 0.01 | –
26 | O=C(Nc1ccccc1Cl)c1cc(Cl)ccc1O | 4 µg/mL | 2 µg/mL | > 1020 µg/mL | 0.012 | –

The next lines start with results.

Row | MIC [1] | MIC [2] | MIC [4] | Structure (SMILES) | fractional inhibitory concentration index (FICI) [3] | other results
27 | 2 µg/mL | 2 µg/mL | – | O=C(Nc1ccc([N+](=O)[O-])cc1Cl)c1cc(Cl)ccc1O [NICLOSAMIDE] | 0.01 | –
28 | 32 µg/mL | 4 µg/mL | – | O=C(Nc1ccc(O)cc1Cl)c1cc(Cl)ccc1O | 0.141 | –
29 | – | – | > 1020 µg/mL | CC(=O)N1CCc2cc(NC(=O)c3cc(F)ccc3O)ccc21 | – | –
30 | 32 µg/mL | 16 µg/mL | > 1020 µg/mL | O=C(Nc1ccc([N+](=O)[O-])cc1Cl)c1cc(Cl)ccc1O[C@H]1O[C@H](CO)[C@H](O)[C@H](O)[C@H]1O | 0.094 | –
31 | – | – | > 1020 µg/mL | O=C(Nc1ccc(O)cc1Cl)c1cc(F)ccc1O | – | –
32 | > 32 µg/mL | > 32 µg/mL | > 1020 µg/mL | O=C(Nc1ccc([N+](=O)[O-])cc1Cl)c1cc(O)ccc1O | – | –
33 | 32 µg/mL | 1 µg/mL | – | O=C(Nc1ccc([N+](=O)[O-])cc1Cl)c1cccc(F)c1O | 0.129 | –
34 | > 32 µg/mL | > 32 µg/mL | > 1020 µg/mL | O=C(Nc1cccnc1)c1cc(Cl)ccc1O | – | –
35 | > 32 µg/mL | > 32 µg/mL | > 1020 µg/mL | O=C(Nc1ccc(S)cc1)c1cc(Cl)ccc1O | – | –
36 | 8 µg/mL | 1 µg/mL | > 1020 µg/mL | O=C(Nc1ccc([N+](=O)[O-])cc1Cl)c1ccc(Br)cc1O | 0.012 | –
37 | > 32 µg/mL | > 32 µg/mL | > 1020 µg/mL | O=C(Nc1ccc([N+](=O)[O-])cc1Cl)c1ccccc1 | – | –
